The subject of assay [1] is human coronary artery smooth muscle cells. As to conditions: International Publication WO 01/93871; cited from earlier work.
For assay [2] the following is noted: International Publication WO 01/93871; cited from earlier work.
Assay [3] relates to human coronary artery smooth muscle cells. Briefly: Proliferation of human coronary artery smooth muscle cells. The format is cell-based. As to conditions: Smooth muscle cells. The protocol: (§1) Human umbilical vein endothelial cells (HUBEC) (1×10^5/cm^2) were inoculated into a medium containing MCDB-104, 10% FBS, ECGF (100 ng/mL), EGF (10 ng/mL), and heparin (100 ng/mL), and phenolsulfonphthalein or bromosulfophthalein was added to the medium, followed by culturing for three days. Thereafter, the resultant cells were counted, and the number of the cells was compared with that in the case where no drug was added to the medium. In a manner similar to that described above, human coronary artery smooth muscle cells (1×10^5/cm^2) were cultured in a medium containing MCDB-104, 10% FBS, and EGF (10 ng/mL) for three days, and the resultant cells were counted.

Assay [4] concerns Human umbilical vein endothelial cells (HUBEC). Briefly: Proliferation of human vascular endothelial cells. Format: cell-based. Particulars: Endothelial cells. The protocol:
as §1

Each structure is given as a SMILES string. Marks after values point to notes of the source that are not given here.

Regarding `Cc1cc(-c2ccc(/N=N/c3ccc4c(S(=O)(=O)O)cc(S(=O)(=O)O)c(N)c4c3O)c(C)c2)ccc1/N=N/c1ccc2c(S(=O)(=O)O)cc(S(=O)(=O)O)c(N)c2c1O` [Evans Blue], the “effect of inhibiting proliferation of vascular smooth muscle cells” value in assay [1] is given as “has the effect of inhibiting proliferation of vascular smooth muscle cells”. Also, in assay [2], the antithrombotic effect result is reported as “antithrombotic effect”. Further, the “number of cells after culturing for three days” value is listed as 0.07*** in assay [3] (Concentration (mol) 10^−4); 0.34** in assay [3] (Concentration (mol) 10^−5); 1.00* in assay [3] (Concentration (mol) 10^−6); 3.50* in assay [3] (Concentration (mol) 10^−7); 3.89 in assay [3] (Concentration (mol) 10^−8); 0.12** in assay [4] (Concentration (mol) 10^−4). The “number of cells after culturing for three days” value in assay [4] (Concentration (mol) 10^−5) is on record as 0.98*; in assay [4] (Concentration (mol) 10^−6) it was 1.54*; in assay [4] (Concentration (mol) 10^−7), 3.11*; in assay [4] (Concentration (mol) 10^−8) it was 3.50.

Values taken from patent US20060122264A1, “Stem cell invasion inhibitor” (Yasumi Uchida, etal, priority 2003, published 2006).
